According to EP0045157A1, “Macrolide antibiotics, their preparation and veterinary compositions containing them” (ELI LILLY AND COMPANY, priority 1980, dated 1982):

How the values were obtained:
[1] = Solubility; type: physicochemical; conditions: water and most polar organic solvents (acetone, methanol, ethanol, chloroform, dimethylformamide, dimethyl sulfoxide)
From the text: DOMM acid addition salts are more soluble in water than is DOMM base.

[2] = Electrometric titration (pKa); type: physicochemical; conditions: electrometric titration in 66% aqueous dimethylformamide; read-out: pKa value of titratable group
From the text: Electrometric titration of DOMM in 66% aqueous dimethylformamide indicates the presence of a titratable group with a pKa value of about 7.14.

With `CCC1OC(=O)CC(O)C(C)C(OC2OC(C)C(OC3CC(C)(O)C(O)C(C)O3)C(N(C)C)C2O)C(CC=O)CC(C)C(=O)C=CC(C)=CC1COC1OC(C)C(O)C(O)C1O` (centres unmarked) [DOMM, 2"'-O-demethylmacrocin] the solubility [1] was “soluble in water and in most polar organic solvents” and the pKa [2] was roughly 7.14.
